Assay results taken from the NIST ThermoML archive (doi:10.1021/je060178m).
± gives the expanded uncertainty stated by the source.

Tests used:
[1] = Crystal; DTA
[2] = Molar enthalpy of transition or fusion; conditions: Crystal; DSC

## NC(=O)c1ccccc1O [2-hydroxybenzamide]
[1]
  Normal melting temperature: 138.70 ± 1.1 °C
[2]
  Molar enthalpy of transition or fusion: 6.93 ± 0.191 kcal/mol
